This assay addresses T1, MST2 (Homo sapiens, UniProt Q13188).
T1 construct: purchased Upstate
T1 sequence (Q13188 1-491): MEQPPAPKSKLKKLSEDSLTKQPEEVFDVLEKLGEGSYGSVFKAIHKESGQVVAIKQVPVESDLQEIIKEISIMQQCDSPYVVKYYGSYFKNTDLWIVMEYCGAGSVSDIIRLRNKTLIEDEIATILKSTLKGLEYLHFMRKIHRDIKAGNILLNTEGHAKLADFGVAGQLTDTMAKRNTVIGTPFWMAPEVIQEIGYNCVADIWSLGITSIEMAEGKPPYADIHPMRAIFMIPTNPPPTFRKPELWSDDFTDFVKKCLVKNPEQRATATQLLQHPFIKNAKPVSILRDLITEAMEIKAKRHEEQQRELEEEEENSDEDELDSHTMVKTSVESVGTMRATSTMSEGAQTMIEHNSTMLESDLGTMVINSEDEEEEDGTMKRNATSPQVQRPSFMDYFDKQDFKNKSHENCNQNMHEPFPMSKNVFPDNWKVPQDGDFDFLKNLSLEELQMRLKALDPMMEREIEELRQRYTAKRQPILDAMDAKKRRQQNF
Put plainly: LabChip (Caliper) kinase assay, MST2. The assay is classed as biochemical. The following applies: read-out: remaining kinase activity (in %) / percentage of inhibition; for inhibition at 0.01 µM: compound at 10 nM; for inhibition at 0.1 µM: compound at 100 nM. The procedure: The analysis of kinase activity described here was performed using LabChip (Caliper Life Sciences), specifically the Caliper LC3000 and the EZ Reader II instruments.
The kinase assay used measures the conversion of a fluorescent peptide (substrate) to a phosphorylated product. The reaction mixture, in a microplate well, is introduced by a capillary in a chip where the non-phosphorylated substrate and the phosphorylated product are separated by […]. The intensity of the fluorescent signal over time is related to the reaction progress. The phosphorylated product migrates quicker than the non-phosphorylated substrate and the signals of the two forms of the peptide appear as differentiated peaks. The Caliper determines the peak height and calculates the ratio of product to the peak sum (P/(P+S)). This value is used to compare wells with compounds and wells with controls and thus determine the % of inhibition for the given product.
The followings kinases were used for the enzymatic inhibition studies, between brackets the value of the Michaelis-Menten constant, Km, of the ATP (Adenosine triphosphate) for each kinase, in μM: obtained from Carna Biosciences: MAPKAPK2 (4.6), AurA (3.6), AurB (5), PKCζ (3.8), RSK1 (23.3), PRAK (5), Erk1 (33.4), PKD2 (32.1), CK1d (16.3), CHK1 (33), ABL (61.7), FYN (36), LYNa (17), CHK2 (57.8), MET (79.5), LCK (28.5), SRC (38), GSK3β (7.3), Erk2 (62.1), PKACα (1.7), AKT2 (186.1), INSR (871.8), p38a (396.5), AKT1(48), MSK1 (21.2), PKCβ2 (84.8), ROCK2 (3.3), PIM2 (4.9), AMPK (38.6), KDR (164.8), IRAK4 (196.5), SGK1 (121.8), SYK (33.5); obtained from Invitrogen: CDK2 (57.6), BTK (123), HGK (80); obtained from Upstate: MST2 (36.6), PKGα (16), PAK2 (1.9), IGF1R (320), FGFR1 (171), MARK1 (33), CAMK2δ (22.4), c-TAK1 (66), DYRK1a (18.1), CaMK4 (3.9), FLT3 (350), c-Raf (6.2), P70S6K (95).
The compounds were dissolved in 100% DMSO and were diluted at 25 times the final concentration desired for the assay. In the case of the determination of Cl50, serial dilutions were made to reach eight concentrations and give rise to the inhibition curve. 1 μL of each concentration is transferred, in duplicate to a 384-well microplate. 12 μL of enzymatic buffer is added to each well containing purified kinase (several suppliers as indicated above), 100 mM HEPES, pH 7.5, 1 mM DTT (Calbiochem), 0.002% Brij-35 (Sigma) and also in presence of 10 mM MgCl2 as cofactor, except for INSR and IRAK4 wherein 10 mM MnCl2 is used instead of MgCl2. For the kinases CAMK26 and CAMK4, 1 mM CaCl2 and 6.7 μg/mL of calmodulin are also added. For KDR kinase, 0.05% of the CHAPSO detergent is added. For the c-Raf kinase, 10 mM MnCl2 is added. For PKCβ2 0.02 μg/mL of PS/PMA is added. For PKGα se 10 μM of cGMP (cyclic guanosine monophosphate) is added. The compound and the enzyme are left for 15 minutes preincubation and, then, the following are added to each well: 12 μL of peptide buffer/ATP containing 100 mM HEPES, pH 7.5, 1.5 μM peptide marker with fluorescein (specific for the corresponding kinase), ATP (at concentration KM), and 0.002% Brij-35 to start the reaction. Generally, the reactions are incubated for 1-1.5 h at ambient temperature to obtain an adequate conversion (15-40%) of the peptide to the phosphorylated product. The reactions were ended by the addition of 45 μL of buffer containing 0 mM EDTA. The microplates were read by the LabChip 3000 using a 12-channel LabChip. The P/(P+S) values were obtained as described above and the CI50 curves were generated using XIfit. […]

The source of these data is patent US8598132B2, “Glycosylated indolocarbazoles, method for obtaining same and uses thereof” (Universidad de Oviedo, priority 2008, dated 2013).

Structures are written as SMILES.

Consider `C[C@@H]1O[C@@H](n2c3ccccc3c3c4c(c5c6ccccc6[nH]c5c32)C(=O)NC4=O)[C@H](O)[C@H](O)[C@H]1O` [formula (III), N^13-1′-β-L-rhamnosylarcyriaflavin], for which the inhibition at 0.01 µM was determined as 2% and the inhibition at 0.1 µM was 10%.

As for `C[C@@H]1O[C@@H](n2c3ccccc3c3c4c(c5c6ccccc6[nH]c5c32)C(=O)NC4=O)C[C@H](O)[C@H]1O` [formula (IV), N^13-1′-β-L-olivosylarcyriaflavin], the inhibition at 0.01 µM was 2% and the inhibition at 0.1 µM worked out at 15%.

With `C[C@@H]1O[C@@H](n2c3ccccc3c3c4c(c5c6ccccc6[nH]c5c32)C(=O)NC4=O)C[C@@H](O)[C@H]1O` [formula (V), N^13-1′-β-L-digitoxosylarcyriaflavin], the inhibition at 0.01 µM is 16% and the inhibition at 0.1 µM turned out to be 54%.

For `C[C@H]1O[C@@H](n2c3ccccc3c3c4c(c5c6ccccc6[nH]c5c32)C(=O)NC4=O)C[C@@H](O)[C@@H]1O` [formula (VI), N^13-1′-β-D-olivosylarcyriaflavin], the inhibition at 0.01 µM is 13% and the inhibition at 0.1 µM was determined as 65%.

Take `C[C@@H]1O[C@@H](n2c3ccccc3c3c4c(c5c6ccccc6[nH]c5c32)CNC4=O)[C@H](O)[C@H](O)[C@H]1O` [formula (XII), N^13-1′-β-L-rhamnosyl-k252c]: the inhibition at 0.01 µM was 4% and the inhibition at 0.1 µM amounted to 19%.

In the case of `C[C@@H]1O[C@@H](n2c3ccccc3c3c4c(c5c6ccccc6[nH]c5c32)CNC4=O)C[C@H](O)[C@H]1O` [formula (XIII), N^13-1′-β-L-olivosyl-k252c], the inhibition at 0.01 µM was 4% and the inhibition at 0.1 µM was 33%.

Take `C[C@@H]1O[C@@H](n2c3ccccc3c3c4c(c5c6ccccc6[nH]c5c32)CNC4=O)C[C@@H](O)[C@H]1O` [formula (XIV), N^13-1′-β-L-digitoxosyl-k252c]: the inhibition at 0.01 µM is 7% and the inhibition at 0.1 µM came to 34%.

As for `C[C@H]1O[C@@H](n2c3ccccc3c3c4c(c5c6ccccc6[nH]c5c32)CNC4=O)C[C@@H](O)[C@@H]1O` [formula (XV), N^13-1′-β-D-olivosyl-k252c], the inhibition at 0.01 µM worked out at 12% and the inhibition at 0.1 µM turned out to be 78%.
